Measurements published in patent US5612319A, “Postexposure prevention of HIV infection or seroconversion” (Medivir AB, priority 1994, dated 1997).
Converted amounts (≈) assume the structure as drawn.

Columns and labels:
[1] = test system: lentivirus infections with HIV or SIV; details: administered prophylactically, prior to exposure to HIV or SIV; cited from earlier work
SIV [2] = details: prophylactically, i.e. pre-exposure administered; cited from earlier work
HIV [3] = details: rapid and sustained postexposure administration of large doses; cited from earlier work
HIV-1, HIV-2 or SIV = details: until shortly after "treatment" is concluded; cited from earlier work
HIV [4] = details: HIV-infected individuals; cited from earlier work
SIV [5] = assay: Postexposure prevention of SIV infection in macaque monkeys (Example 2, Table 1); type: in vivo; details: for Detected during 30 days post virus inoculation: SIV Ag / Detected during 30 days post virus inoculation: SIV-2 / SIV antibody detected during 30 days post inoculation: 10 mg/kg s.c. three times per day
Protocol: Inoculation: The control and test animals, 2 year old macaque monkeys were inoculated […] with either a moderate (10 monkey infectious doses MID50, as determined by Bottiger et al Antiviral Chemistry and Chemotherapy 1992;3:269-271) or a high (100 MID50) dose preparation of SIV in phosphate buffer, as listed in Table 1 below.
One or three hours after i.v. inoculation with SIV, paired test animals were injected subcutaneously with 10 mg/kg of the preparation of Example 1, repeated three times per day for 1 day or 3 days as listed in table 1. Blood samples were extracted from the test and control animals on days 0, 17, 23 and 30 for determination of SIV antibody, SIV p26 antigen and presence of infective virus. The methods have been described by Bottiger et al, AIDS Res Hum Retroviruses 1992;7:1235-1238.

[6] = Cell culture tolerance in MT4 cells; type: cell-based, human; details: human; cell culture, MT4 cells; read-out: ID50 in MT4 cells
MT4 cells = assay: Cell culture tolerance in MT4 cells; type: cell-based, human; details: cell culture results
[7] = In vivo simian experiments, short term toxicity; details: 30 mg/kg/day
SIV [8] = details: administered from 8 hours prior to virus inoculation; cited from earlier work
[9] = 10 MID50, treatment start 1 hour post inoculation, duration 1 day, monkeys 45, 46
[10] = 10 MID50, treatment start 1 hour post inoculation, duration 3 days, monkeys 48, 49
[11] = 10 MID50, treatment start 3 hours post inoculation, duration 3 days, monkeys 54, 57
[12] = 100 MID50, treatment start 1 hour post inoculation, duration 3 days, monkeys 53, 58

For `Cc1cn([C@H]2C[C@H](N=[N+]=[N-])[C@@H](CO)O2)c(=O)[nH]c1=O` [AZT, zidovudine], the “effect on pattern of lentivirus infections” value [1] is given as “may alter the pattern of lentivirus infections”, the “prevention of infection with SIV” value (SIV [2]) is given as “inability to prevent infection with SIV” and the “published accounts of seroconversion after accidental exposure to HIV” value (HIV [3]) is given as 13 published accounts. For the same molecule, the delay of seroconversion (HIV-1, HIV-2 or SIV) was “at most appear to delay seroconversion” and the “suppression of AIDS development or reducing viral loads” value (HIV [4]) was “clinically significant action”.
For `Nc1ccn([C@H]2C[C@H](CO)[C@@H](CO)O2)c(=O)n1` [Example 1, 1-[2',3'-dideoxy-3'-C-(hydroxymethyl)-β-D-erythro-pentofuranosyl]-cytosine], the “Detected during 30 days post virus inoculation: SIV Ag” value (SIV [5]; [9]) was “-”, the “Detected during 30 days post virus inoculation: SIV-2” value (SIV [5]; [9]) was “-” and the “SIV antibody detected during 30 days post inoculation” value (SIV [5]; [9]) was “-”. The “Detected during 30 days post virus inoculation: SIV Ag” value (SIV [5]; [10]) was “-”, the “Detected during 30 days post virus inoculation: SIV-2” value (SIV [5]; [10]) was “-” and the “SIV antibody detected during 30 days post inoculation” value (SIV [5]; [10]) was “-”. For the same molecule, the “Detected during 30 days post virus inoculation: SIV Ag” value (SIV [5]; [11]) was “-”, the “Detected during 30 days post virus inoculation: SIV-2” value (SIV [5]; [11]) was “-” and the “SIV antibody detected during 30 days post inoculation” value (SIV [5]; [11]) was “-”. The “Detected during 30 days post virus inoculation: SIV Ag” value (SIV [5]; [12]) was “-”, the “Detected during 30 days post virus inoculation: SIV-2” value (SIV [5]; [12]) was “-” and the “SIV antibody detected during 30 days post inoculation” value (SIV [5]; [12]) was “-”. For the same molecule, the “protection from 100 infectious doses of SIV” value (SIV [5]; 3 days treatment, 100 infectious doses, animals 53 and 58) was “protected the test animals from the very high dose of 100 infectious doses of SIV”, the “prevention of infection establishing itself in the test animals” value (SIV [5]; all test animals, viral antigen, antibody or virus culture in blood) was “prevented the infection establishing itself in the test animals” and the “SIV antibody or SIV antigen in test animals” value (SIV [5]; each test animal, 30 day period monitored) was “free from detectable SIV antibody or SIV antigen”. For the same molecule, the “infectious virus cultivated from blood samples” value (SIV [5]; each test animal, day 30) was “infectious virus could not be cultivated”, the “protection from 10 infectious doses of SIV” value (SIV [5]; single day of treatment, 10 infectious doses) was “protected the test animals from 10 infectious doses of SIV” and the CC50 [6] was about 45 µg/mL (≈ 187 µM). For the same molecule, the “tolerance by human cells” value (MT4 cells) was “generally well tolerated” and the “toxicity short term in simian experiments” value [7] was “no detectable toxicity”.
In the case of `Cc1cn([C@H]2C[C@H](F)[C@@H](CO)O2)c(=O)[nH]c1=O` [FLT, 3'-fluorothymidine], the “protection against SIV” value (SIV [8]) is listed as “may provide some protection against SIV”.
For `O=C(O)P(=O)(O)O` [PFA], the “prevention of infection with SIV” value (SIV [2]) is given as “inability to prevent infection with SIV”.
For `Cc1cn([C@H]2C=C[C@@H](CO)O2)c(=O)[nH]c1=O` [d4T], the “prevention of infection with SIV” value (SIV [2]) is given as “inability to prevent infection with SIV”.
In the case of `Nc1ccn([C@H]2CC[C@@H](CO)O2)c(=O)n1` [ddC], the “prevention of infection with SIV” value (SIV [2]) is listed as “inability to prevent infection with SIV”.
